Nine molecules from patent publication US9085576B2 (AMGEN INC., priority 2013, dated 2015) can be followed below.

Test [1] concerns the target BACE (Homo sapiens (Human), UniProt P56817). Put plainly: In vitro BACE cell-based assay (Aβ40 in conditioned medium, sandwich ELISA).
Test [2] addresses Cathepsin D (Cat D) (Homo sapiens (Human), UniProt P07339). Briefly: In vitro enzymatic Cathepsin D (Cat D) FRET assay. The class given is biochemical. The settings on record: read-out: CatD IC50.
The target of test [3] is Beta Secretase enzyme (BACE) (Homo sapiens (Human), UniProt P56817). Put plainly: In vitro enzymatic BACE FRET assay. The class given is biochemical. The settings on record: read-out: BACE1 Enzyme assay IC50.
Beta Secretase enzyme (BACE), sequence (P56817 46-501): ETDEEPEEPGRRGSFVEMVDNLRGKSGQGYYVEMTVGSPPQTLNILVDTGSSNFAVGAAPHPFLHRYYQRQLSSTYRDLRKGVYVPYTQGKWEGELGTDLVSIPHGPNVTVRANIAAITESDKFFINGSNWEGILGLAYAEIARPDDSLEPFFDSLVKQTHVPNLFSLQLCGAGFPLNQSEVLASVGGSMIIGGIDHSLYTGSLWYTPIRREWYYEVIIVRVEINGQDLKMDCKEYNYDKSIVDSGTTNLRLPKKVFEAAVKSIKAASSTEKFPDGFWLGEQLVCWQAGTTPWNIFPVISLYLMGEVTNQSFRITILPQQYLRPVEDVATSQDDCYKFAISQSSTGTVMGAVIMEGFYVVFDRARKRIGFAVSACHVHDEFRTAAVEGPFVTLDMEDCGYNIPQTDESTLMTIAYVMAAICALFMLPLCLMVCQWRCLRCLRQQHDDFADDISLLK

Each structure is given as a SMILES string. pIC50: −log10 of the molar value. Bounds are passed on as bounds.

BACE, sequence (P56817 46-501, species assumed): as the sequence (P56817 46-501) above
Cathepsin D (Cat D), sequence (P07339 65-412, species assumed): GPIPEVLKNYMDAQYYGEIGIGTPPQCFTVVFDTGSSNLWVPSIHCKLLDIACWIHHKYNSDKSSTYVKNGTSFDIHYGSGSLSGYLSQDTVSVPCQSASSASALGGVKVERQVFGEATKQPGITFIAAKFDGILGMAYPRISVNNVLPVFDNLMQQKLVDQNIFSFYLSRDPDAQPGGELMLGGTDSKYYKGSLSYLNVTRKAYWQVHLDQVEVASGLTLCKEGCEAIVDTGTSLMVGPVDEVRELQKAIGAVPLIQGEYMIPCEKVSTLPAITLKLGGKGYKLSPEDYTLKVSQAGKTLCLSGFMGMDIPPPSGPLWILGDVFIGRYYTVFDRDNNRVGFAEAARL

Take `NC1=N[C@](CF)(c2nc(NC(=O)c3ccc(Cl)cn3)ccc2F)[C@H]2C[C@H]2O1` (stereo in doubt) [Example 105, N-(6-((1R,5S,6R)-3-amino-5-(fluoromethyl)-2-oxa-4-azabicyclo[4.1.0]hept-3-en-5-yl)-5-fluoropyridin-2-yl)-5-chloropicolinamide]: the IC50 in test [1] worked out at 2.1 µM. Besides, the negative-log IC50 (pIC50) in test [2] was 2.79; in test [3], 4.41.
In turn, `NC1=N[C@@](CF)(c2nc(NC(=O)c3ccc(Cl)cn3)ccc2F)[C@@H]2C[C@@H]2O1` (stereo in doubt) [Example 106, N-(6-((1S,5R,6S)-3-amino-5-(fluoromethyl)-2-oxa-4-azabicyclo[4.1.0]hept-3-en-5-yl)-5-fluoropyridin-2-yl)-5-chloropicolinamide] gave an IC50 in test [1] of 0.0456 µM. The pIC50 in test [2] was 3.67; in test [3], 6.60.
As for `NC1=N[C@@](c2cc(NC(=O)c3nn(C(F)F)cc3Cl)cc(F)c2F)(C(F)F)[C@H]2C[C@H]2O1` (stereo in doubt) [Example 110, N-(3-((1R,5S,6R)-3-amino-5-(difluoromethyl)-2-oxa-4-azabicyclo[4.1.0]hept-3-en-5-yl)-4,5-difluorophenyl)-4-chloro-1-(difluoromethyl)-1H-pyrazole-3-carboxamide], the IC50 in test [1] was > 17.4 µM. In addition, the pIC50 in test [2] is 2.83; in test [3], 4.58.
Molecule `NC1=NC(c2cc(NCc3nn(C(F)F)cc3Cl)ccc2F)(C(F)F)[C@H]2C[C@H]2O1` (stereo in doubt) [Example 374, (1R,5R,6R)-5-(5-(((4-chloro-1-(difluoromethyl)-1H-pyrazol-3-yl)methyl)amino)-2-fluorophenyl)-5-(difluoromethyl)-2-oxa-4-azabicyclo[4.1.0]hept-3-en-3-amine] showed an IC50 in test [1] of 0.0779 µM. For the same molecule, the pIC50 in test [2] was 3.94; in test [3], 7.02.
As for `COc1cc(Cl)cnc1C(=O)Nc1ccc(F)c([C@@]2(C(F)F)N=C(N)O[C@@H]3C[C@@H]32)c1` [Example 28, N-(3-((1R,5S,6R)-3-amino-5-(difluoromethyl)-2-oxa-4-azabicyclo[4.1.0]hept-3-en-5-yl)-4-fluorophenyl)-5-chloro-3-methoxypicolinamide], the IC50 in test [1] was found to be 0.0765 µM. For the same molecule, the results for the pIC50 in test [2] and in test [3] were 3.04 and 6.93, respectively.
As to `NC1=N[C@@](CF)(c2cc(NC(=O)c3ccc(Cl)cn3)cc(F)c2F)[C@@H]2C[C@@H]2O1` [Example 32, N-(3-((1 S,5R,6S)-3-amino-5-(fluoromethyl)-2-oxa-4-azabicyclo[4.1.0]hept-3-en-5-yl)-4,5-difluorophenyl)-5-chloropicolinamide], in test [1], the IC50 stood at 0.232 µM. Moreover, the pIC50 was 2.99 in test [2] and 5.91 in test [3].
For `C#CCOc1cnc(C(=O)Nc2cc(F)c(F)c([C@@]3(CF)N=C(N)O[C@@H]4C[C@@H]43)c2)cn1` [Example 33, N-(3-((1R,5S,6R)-3-amino-5-(fluoromethyl)-2-oxa-4-azabicyclo[4.1.0]hept-3-en-5-yl)-4,5-difluorophenyl)-5-(prop-2-yn-1-yloxy)pyrazine-2-carboxamide], in that order: 0.0014 µM, 3.94 and 8.27.
Turning to `CC#CCOc1cnc(C(=O)Nc2cc(F)c(F)c([C@@]3(CF)N=C(N)O[C@@H]4C[C@@H]43)c2)cn1` [Example 35, N-(3-((1R,5S,6R)-3-amino-5-(fluoromethyl)-2-oxa-4-azabicyclo[4.1.0]hept-3-en-5-yl)-4,5-difluorophenyl)-5-(but-2-yn-1-yloxy)pyrazine-2-carboxamide], the IC50 in test [1] was 0.0006 µM. The results for the pIC50 in test [2] and in test [3] were 3.59 and 8.80, respectively.
As to `NC1=N[C@](CF)(c2cc(NC(=O)c3ccc(Br)cn3)cc(F)c2F)[C@H]2C[C@H]2O1` [Example 39, N-(3-((1R,5S,6R)-3-amino-5-(fluoromethyl)-2-oxa-4-azabicyclo[4.1.0]hept-3-en-5-yl)-4,5-difluorophenyl)-5-bromopicolinamide], the IC50 in test [1] was determined as 0.0179 µM. For the same molecule, the figures for the pIC50 in test [2] and in test [3] were 3.96 and 7.33, respectively.
